The values that follow come from patent publication US9308198B2, “Treatment, prevention, and reversal of alcohol-induced brain disease” (priority 2006, dated 2016).

Each structure is given as a SMILES string.

One data set has as its system cerebellar ATP content. The conditions noted are these: rat, in vivo. The protocol: Studies were done to characterize the degree to which ethanol-associated impairments in receptor binding were associated with reductions in insulin and IGF-I receptor tyrosine kinase activities, and insulin and IGF-I receptor protein expression. Receptor protein levels were measured by Western blotting with digital image densitometry.

Data set [1] relates to acetylcholinesterase (AChE) mRNA. The conditions noted are these: ethanol-exposed pup cerebellar tissue vs control. The protocol:
(§1) Total RNA was isolated from brain tissue using TRIzol reagent (Invitrogen, Carlsbad, Calif.) according to the manufacturer's protocol. RNA concentrations and purity were determined from the absorbances measured at 260 nm and 280 nm. RNA (2 μg) was reverse transcribed using the AMV First Strand cDNA synthesis kit (Roche Diagnostics Corporation, Indianapolis, Ind.) and random oligodeoxynucleotide primers. Real time quantitative RT-PCR was used to measure mRNA levels of insulin, IGF-I, and IGF-II growth factors, their corresponding receptors, neuronal (Hu), astrocytic (glial fibrillary acidic protein; GFAP), oligodendroglial (myelin-associated glycoprotein-1; MAG-1), microglial (AIF1), and endothelial (endothelin-1; ET-1) cell genes, acetyl cholinesterase (AChE), and choline acetyltransferase (ChAT). Ribosomal 18S RNA levels measured in parallel reactions were used to calculate relative abundance of the mRNA transcripts (Myers et al., Trends Biochem. Sci. 19:289 (1994); Baltensperger et al., Science 260:1950 (1993)). PCR amplifications were performed in 25 μl reactions containing cDNA generated from 2.5 ng of original RNA template, 300 nM each of gene specific forward and reverse primer (Table 1), and 12.5 μl of 2× QuantiTect SYBR Green PCR Mix (Qiagen Inc, Valencia, Calif.). […]

Data set [2] deals with choline acetyltransferase (ChAT) mRNA. The settings on record: ethanol-exposed pup cerebellar tissue vs control. On the procedure:
as §1

The next data set has as its system cerebellar cortex. The settings on record: rat, in vivo. From the text: (§2) Male (˜200 g) Long Evans rats (Charles River Laboratories, Cambridge, Mass.) were fed isocaloric liquid diets (BioServ, Frenchtown, N.J.) in which ethanol comprised 0% or 37% of the caloric content (9.25% v/v) for 6 weeks (Yeon et al., Hepatology 38:703 (2003)). A chow fed control group was also studied. Rats were monitored daily to ensure equivalent food consumption and maintenance of body weight. Upon sacrifice, the brains were harvested and either immersion fixed in Histochoice fixative (Amresco Corp., Solon, Ohio) for paraffin embedding, or sliced fresh to micro-dissect temporal cortex, hypothalamus, and cerebellum. The fresh tissue blocks were snap frozen in a dry ice-methanol bath and stored at −80° C. for mRNA and protein studies.
(§3) Fixed brains were sectioned in the coronal plane along standardized landmarks and embedded in paraffin. Paraffin-embedded sections (8 μm thick) were stained with hematoxylin and eosin, or immunostained with monoclonal antibodies to 8-hydroxy-deoxyguanosine (8-OHdG) (Oxis Research) or 4-hydroxynonenol (HNE) (Chemicon International, Temecula, Calif.) to detect DNA damage and lipid peroxidation, respectively. Prior to immunostaining, deparaffinized, re-hydrated sections were treated with 0.1 mg/ml saponin in phosphate buffered saline (10 mM sodium phosphate, 0.9% NaCl, pH 7.4; PBS) for 20 minutes at room temperature, followed by 3% hydrogen peroxide in methanol for 10 minutes to quench endogenous peroxidase activity, and then 30 minutes in SuperBlock-TBS (Pierce Chemical Co., Rockford, Ill.) at room temperature to block non-specific binding sites. The sections were incubated overnight at 4° C. with 0.5-1 μg/ml of primary antibody. Immunoreactivity was detected with biotinylated secondary antibody, avidin biotin horseradish peroxidase complex (ABC) reagents, and diaminobenzidine as the chromogen (Vector Laboratories, Burlingame, Calif.) (Lam et al. J. Biol. Chem. 269:20648 (1994)). The tissue sections were counterstained with hematoxylin and examined by light microscopy.

Data set [3] concerns lipid peroxidation and DNA damage in brain. The settings on record: rat, in vivo.
Excerpt: as §2, §3

The test system of a further data set is AChE mRNA. The settings on record: chronic ethanol feeding; temporal lobe, hypothalamus, cerebellum.
Excerpt: as §2
(§4) Total RNA was isolated from brain tissue using TRIzol reagent (Invitrogen, Carlsbad, Calif.) according to the manufacturer's protocol. RNA concentrations and purity were determined from the absorbances measured at 260 nm and 280 nm. […] Real time quantitative RT-PCR was used to measure mRNA levels of insulin, IGF-I, and IGF-II growth factors, their corresponding receptors, neuronal (Hu), astrocytic (glial fibrillary acidic protein; GFAP), oligodendroglial (myelin-associated glycoprotein-1; MAG-1), microglial (AIF1), and endothelial (endothelin-1; ET-1) cell genes, acetyl cholinesterase (AChE), and choline acetyltransferase (ChAT). […]

A further data set concerns ChAT mRNA. The settings on record: chronic ethanol feeding; hypothalamus and cerebellum.
Excerpt: as §2, §4

The subject of the next data set is IGF-I receptors. The settings on record: pup cerebellar membrane extracts, chronic gestational ethanol exposure relative to control; not dose-dependent.
Data set [4] has as its system cerebellar membrane cholesterol content. The settings on record: 8% ethanol diet group, pups.
Protocol: Cholesterol content was measured using the Amplex Red assay kit (Molecular Probes, Eugene, Oreg.) according to the manufacturer's protocol. […] Briefly, tissue homogenates were prepared in RIPA buffer as described above. Samples, serially diluted in 1× reaction buffer (provided with the kit), were incubated with 150 μM Amplex Red reagent, 1 U/ml horseradish peroxidase, 1 U/ml cholesterol oxidase, and 0.1 U/ml cholesterol esterase in final reaction volumes of 100 μl. Reactions were incubated at 37° C. for 30 minutes and fluorescence was measured in a Fluorocount microplate reader (Packard Instrument Co., Meriden, Conn.) (Ex 560 nm/Em 590 nm). A standard curve was simultaneously generated using a cholesterol standard provided with the kit. The levels of cholesterol were normalized to protein concentration in the samples.

Protocol for IGF-I receptors: Fresh frozen tissue (˜100 mg) was homogenized in 5 volumes of NP-40 lysis buffer (50 mM Tris-HCl, pH 7.5, 1% NP-40, 150 mM NaCl, 1 mM EDTA, 2 mM EGTA) containing protease inhibitors (1 mM PMSF, 0.1 mM TPCK, 1 μg/ml aprotinin, 1 μg/ml pepstatin A, 0.5 μg/ml leupeptin, 1 mM NaF, 1 mM Na4P2O7). Protein concentrations were determined using the bicinchoninic acid (BCA) assay (Pierce, Rockford, Ill.). Exploratory studies determined the amounts of protein and concentrations of radiolabeled ligand required to achieve 20% specific binding. Insulin receptor binding assays were performed using 100 μg protein. IGF-I binding assays required 25 μg protein per sample, and IGF-II receptor binding assays were optimized using 10 μg protein. […]
All reactions were performed in 1.5 ml Eppendorff tubes, and the incubations were performed at 4° C. for 16 hours with gentle platform agitation. […] The samples were counted for 1 minute in an LKB CompuGamma CS Gamma counter. Specific binding was calculated by subtracting fmol of non-specific binding, i.e., amount bound in the presence of cold ligand, from the total fmol bound (absence of unlabeled competitive ligand). The results were analyzed and plotted using the GraphPad Prism 4 software (GraphPad Software, Inc., San Diego, Calif.).

Regarding `CCO` [ethanol], in the data set on cerebellar ATP content, the “cerebellar ATP content” value was “dose-dependent progressive reductions”. Also, the “AChE mRNA expression” value in [1] is “increases”. In [2], the “ChAT mRNA expression” value is recorded as “significant reductions”. In addition, the “structural abnormalities in the cerebellar cortex” value in the data set with cerebellar cortex was “loss of Purkinje cells and reduced densities of cells within the internal granule layer”. For the same compound, in data set [3], the “8-OHdG immunoreactivity (DNA damage)” value is given as “only detected in scattered cells” and the “HNE immunoreactivity (lipid peroxidation)” value was “conspicuously increased cellular labeling”. In addition, the “expression of AChE” value in the data set on AChE mRNA is on record as “did not significantly alter”. In addition, the “ChAT mRNA expression” value with ChAT mRNA was “significantly reduced”. Also, the “impairment of IGF-I receptor binding” value in the data set with IGF-I receptors is given as approximately 80%. For the same compound, in data set [4], the “reduction of cerebellar membrane cholesterol content relative to control” value is listed as approximately 50%.
